Measurements: PMC4503722, “Novel Phenotypic Outcomes Identified for a Public Collection of Approved Drugs from a Publicly Accessible Panel of Assays” (PLoS ONE, 2015)
Where two headings read alike, the source gives them in different places.

Legend:
[1] = tested on: endothelial tube formation in co-cultures of ECFCs and ADSCs treated with VEGF; assay: cells; type: cell-based, human
[2] = tested on: nuclear β-catenin in C2C12 cells; assay: cells; type: cell-based
INS-1E cells = assay: cells; type: cell-based, rat
NCI-H716 cells = assay: cells; type: cell-based, Human
HeLa cells = assay: cells; type: cell-based
DLD-1 = assay: cells; type: cell-based; conditions: Homo sapiens
SW480 = assay: cells; type: cell-based; conditions: Homo sapiens
HCT116 = assay: cells; type: cell-based; conditions: Homo sapiens
[3] = tested on: HCT116 cells treated with a GSK3β inhibitor; assay: cells; type: cell-based; conditions: Homo sapiens
hp70S6K1 (RPS6KB1) = molecular target: T1, hp70S6K1 (RPS6KB1) (Homo sapiens, UniProt P23443); assay: Cerep LANCE kinase assay hp70S6K1 (S1 assay 31); type: biochemical; conditions: for IC50: read-out: p70S6K1
T1 construct: purchased Cerep (LANCE kinase assay platform, contract assay)

hKDR = molecular target: T2, hKDR (Homo sapiens, UniProt P35968); assay: Cerep LANCE kinase assay hKDR (S1 assay 32); type: biochemical; conditions: for IC50: read-out: KDR
T2 construct: purchased Cerep (LANCE kinase assay platform, contract assay)

hJAK2 = molecular target: T3, hJAK2 (Homo sapiens, UniProt O60674); assay: Cerep LANCE kinase assay hJAK2 (S1 assay 33); type: biochemical; conditions: for IC50: read-out: JAK2
T3 construct: purchased Cerep (LANCE kinase assay platform, contract assay)

hGSK3b = molecular target: T4, hGSK3b (Homo sapiens, UniProt P49841); assay: Cerep LANCE kinase assay hGSK3b (S1 assay 34); type: biochemical; conditions: for IC50: read-out: GSK3b
T4 construct: purchased Cerep (LANCE kinase assay platform, contract assay)

hFLT3 = molecular target: T5, hFLT3 (Homo sapiens, UniProt P36888); assay: Cerep LANCE kinase assay hFLT3 (S1 assay 35); type: biochemical; conditions: for IC50: read-out: FLT3
T5 construct: purchased Cerep (LANCE kinase assay platform, contract assay)

[4] = Homo sapiens, IC50 / EC50; endothelial tube area, ADSC/ECFC co-culture; read-out: Anti-Angiogenesis
[5] = Mus musculus, C2C12, IC50 / EC50; C2C12 beta-catenin translocation; read-out: Wnt Pathway
[6] = Rattus norvegicus; IC50 / EC50; INS-1E; read-out: Insulin Secretion
[7] = Homo sapiens; IC50 / EC50; NCI-H716; read-out: GLP 1 Secretion
[8] = Homo sapiens, HeLa, IC50 / EC50; HeLa; read-out: CellCycle G2/M
[9] = DLD-1, basal, read-out: Basal_Viability ATP DLD-1
[10] = SW480, basal, read-out: Basal_Viability ATP SW480
[11] = HCT-116, basal, read-out: Basal_Viability ATP HCT116
[12] = HCT-116, read-out: GSK3b inh pretreated_Viability ATP HCT116
[13] = Homo sapiens; read-out: Anti-Angiogenesis
[14] = Mus musculus, C2C12; read-out: Wnt Pathway
[15] = Rattus norvegicus, INS-1E; read-out: Insulin Secretion
[16] = Homo sapiens, NCI-H716; read-out: GLP 1 Secretion
[17] = Homo sapiens, HeLa, S2 Table; HeLa; 20 = no response at highest concentration; read-out: CellCycle G2/M
[18] = DLD-1, basal, DLD-1, read-out: Basal_Viability ATP DLD-1
[19] = SW480, basal, SW480, read-out: Basal_Viability ATP SW480
[20] = HCT-116, basal, HCT116, read-out: Basal_Viability ATP HCT116
[21] = HCT-116, HCT116 pretreated with GSK3b inhibitor, read-out: GSK3b inh pretreated_Viability ATP HCT116
[22] = Homo sapiens, read-out: Anti-Angiogenesis
[23] = Mus musculus, C2C12, read-out: Wnt Pathway
[24] = Rattus norvegicus, INS-1E, read-out: Insulin Secretion
[25] = Homo sapiens, NCI-H716, read-out: GLP 1 Secretion
[26] = Homo sapiens, HeLa, read-out: CellCycle G2/M
[27] = DLD-1, read-out: Basal_Viability ATP DLD-1
[28] = SW480, read-out: Basal_Viability ATP SW480
[29] = HCT-116, read-out: Basal_Viability ATP HCT116
[30] = Homo sapiens, read-out: Anti-Angio IC50
[31] = Mus musculus, C2C12, read-out: Wnt pot. EC50
[32] = Rattus norvegicus, INS-1E, read-out: Ins. sec. EC50
[33] = Homo sapiens, NCI-H716, read-out: GLP1 sec. EC50
[34] = DLD-1, 72 h, read-out: DLD-1 viab. IC50
[35] = SW480, 72 h, read-out: SW480 viab. IC50
[36] = HCT-116, 72 h, read-out: HCT-116 viab. IC50
[37] = HCT-116, 72 h, read-out: HCT-116 (GSK3β) viab. IC50

T2 sequence (P35968 20-1356): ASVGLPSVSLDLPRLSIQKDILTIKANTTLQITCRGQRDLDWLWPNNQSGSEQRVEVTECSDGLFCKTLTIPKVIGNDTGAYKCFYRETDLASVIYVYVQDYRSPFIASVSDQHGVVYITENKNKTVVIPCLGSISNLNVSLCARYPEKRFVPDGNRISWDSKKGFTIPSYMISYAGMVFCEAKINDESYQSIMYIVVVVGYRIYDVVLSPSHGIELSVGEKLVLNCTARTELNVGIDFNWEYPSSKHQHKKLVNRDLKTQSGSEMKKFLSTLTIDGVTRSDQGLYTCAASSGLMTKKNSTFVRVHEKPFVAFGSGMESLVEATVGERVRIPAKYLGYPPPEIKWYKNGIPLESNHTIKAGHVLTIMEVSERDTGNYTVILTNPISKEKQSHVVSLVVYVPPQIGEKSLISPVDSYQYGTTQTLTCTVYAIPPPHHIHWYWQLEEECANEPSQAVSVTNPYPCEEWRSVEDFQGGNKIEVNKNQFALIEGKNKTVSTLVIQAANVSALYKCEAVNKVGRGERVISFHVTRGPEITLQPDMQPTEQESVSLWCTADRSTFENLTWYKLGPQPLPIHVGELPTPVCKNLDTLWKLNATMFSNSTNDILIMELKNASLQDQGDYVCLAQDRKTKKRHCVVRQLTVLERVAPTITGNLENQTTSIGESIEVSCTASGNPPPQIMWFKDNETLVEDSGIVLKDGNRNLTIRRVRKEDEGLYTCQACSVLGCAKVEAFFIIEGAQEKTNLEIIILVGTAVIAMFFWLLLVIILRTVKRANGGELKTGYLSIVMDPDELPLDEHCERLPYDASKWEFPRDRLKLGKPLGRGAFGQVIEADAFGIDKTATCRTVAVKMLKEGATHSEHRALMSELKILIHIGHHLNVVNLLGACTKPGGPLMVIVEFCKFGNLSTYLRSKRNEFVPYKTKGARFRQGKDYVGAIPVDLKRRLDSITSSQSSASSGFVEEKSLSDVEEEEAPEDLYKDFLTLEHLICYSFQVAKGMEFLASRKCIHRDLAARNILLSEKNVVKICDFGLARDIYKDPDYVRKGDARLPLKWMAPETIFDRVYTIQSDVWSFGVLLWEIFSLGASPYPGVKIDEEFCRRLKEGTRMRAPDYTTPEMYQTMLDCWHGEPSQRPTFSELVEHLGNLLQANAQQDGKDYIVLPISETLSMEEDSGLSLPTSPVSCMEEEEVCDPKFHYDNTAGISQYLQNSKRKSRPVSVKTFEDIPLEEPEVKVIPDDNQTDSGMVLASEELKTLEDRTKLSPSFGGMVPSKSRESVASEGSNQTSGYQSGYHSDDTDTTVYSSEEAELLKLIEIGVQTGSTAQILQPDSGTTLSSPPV
T4 sequence (P49841 whole entry): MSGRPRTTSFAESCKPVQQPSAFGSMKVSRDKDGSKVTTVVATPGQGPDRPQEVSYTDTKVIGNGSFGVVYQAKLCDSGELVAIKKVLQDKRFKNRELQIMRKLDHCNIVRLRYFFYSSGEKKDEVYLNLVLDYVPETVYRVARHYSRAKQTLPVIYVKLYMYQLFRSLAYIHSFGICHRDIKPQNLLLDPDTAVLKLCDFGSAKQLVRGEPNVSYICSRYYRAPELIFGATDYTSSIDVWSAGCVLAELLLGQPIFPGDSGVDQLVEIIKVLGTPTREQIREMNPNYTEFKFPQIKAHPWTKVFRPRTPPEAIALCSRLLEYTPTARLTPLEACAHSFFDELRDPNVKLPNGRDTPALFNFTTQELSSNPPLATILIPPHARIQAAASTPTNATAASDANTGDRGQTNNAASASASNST
T1 sequence (P23443 whole entry): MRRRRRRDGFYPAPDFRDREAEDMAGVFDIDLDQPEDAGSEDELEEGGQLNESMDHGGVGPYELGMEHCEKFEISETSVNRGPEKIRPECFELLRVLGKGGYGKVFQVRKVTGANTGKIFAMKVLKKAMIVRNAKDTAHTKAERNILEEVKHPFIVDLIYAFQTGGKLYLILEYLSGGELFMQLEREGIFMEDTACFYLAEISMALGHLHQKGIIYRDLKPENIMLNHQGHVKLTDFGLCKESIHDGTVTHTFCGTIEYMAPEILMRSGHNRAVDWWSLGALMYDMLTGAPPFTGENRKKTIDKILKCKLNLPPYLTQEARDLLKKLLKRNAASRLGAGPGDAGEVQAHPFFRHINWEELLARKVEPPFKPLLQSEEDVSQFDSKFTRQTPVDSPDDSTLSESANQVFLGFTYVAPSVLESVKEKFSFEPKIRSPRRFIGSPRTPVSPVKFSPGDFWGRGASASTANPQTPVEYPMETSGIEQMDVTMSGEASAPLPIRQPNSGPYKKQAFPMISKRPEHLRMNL
T3 sequence (O60674 whole entry): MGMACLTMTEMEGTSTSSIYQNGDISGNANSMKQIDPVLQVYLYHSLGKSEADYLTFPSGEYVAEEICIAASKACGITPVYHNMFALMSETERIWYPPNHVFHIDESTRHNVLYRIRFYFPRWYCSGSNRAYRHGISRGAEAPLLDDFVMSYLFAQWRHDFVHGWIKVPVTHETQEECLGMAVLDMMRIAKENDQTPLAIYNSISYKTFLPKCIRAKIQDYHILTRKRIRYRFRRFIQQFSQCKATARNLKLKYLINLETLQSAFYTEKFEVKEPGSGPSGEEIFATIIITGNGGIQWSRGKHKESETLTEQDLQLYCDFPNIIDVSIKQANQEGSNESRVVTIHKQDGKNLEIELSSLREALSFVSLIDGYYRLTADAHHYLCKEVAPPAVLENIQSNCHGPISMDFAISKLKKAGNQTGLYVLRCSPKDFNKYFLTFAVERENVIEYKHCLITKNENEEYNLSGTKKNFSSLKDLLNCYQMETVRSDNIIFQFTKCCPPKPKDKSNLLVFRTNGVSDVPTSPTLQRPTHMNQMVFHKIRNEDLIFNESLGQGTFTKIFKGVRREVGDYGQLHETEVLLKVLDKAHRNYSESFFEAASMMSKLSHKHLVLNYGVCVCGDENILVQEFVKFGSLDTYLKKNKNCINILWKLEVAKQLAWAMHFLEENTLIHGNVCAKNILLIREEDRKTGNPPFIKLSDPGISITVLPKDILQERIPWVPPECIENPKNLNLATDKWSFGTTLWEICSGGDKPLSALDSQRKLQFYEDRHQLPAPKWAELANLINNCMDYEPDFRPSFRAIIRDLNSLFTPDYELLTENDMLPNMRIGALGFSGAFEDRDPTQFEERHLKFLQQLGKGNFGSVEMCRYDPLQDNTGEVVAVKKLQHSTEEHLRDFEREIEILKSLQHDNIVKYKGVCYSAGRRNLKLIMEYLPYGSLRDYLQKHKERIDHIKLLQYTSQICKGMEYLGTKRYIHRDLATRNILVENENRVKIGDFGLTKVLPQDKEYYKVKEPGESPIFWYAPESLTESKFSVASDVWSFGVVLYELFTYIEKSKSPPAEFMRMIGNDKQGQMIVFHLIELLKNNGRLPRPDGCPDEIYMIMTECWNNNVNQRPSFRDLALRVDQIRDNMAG
T5 sequence (P36888 27-993): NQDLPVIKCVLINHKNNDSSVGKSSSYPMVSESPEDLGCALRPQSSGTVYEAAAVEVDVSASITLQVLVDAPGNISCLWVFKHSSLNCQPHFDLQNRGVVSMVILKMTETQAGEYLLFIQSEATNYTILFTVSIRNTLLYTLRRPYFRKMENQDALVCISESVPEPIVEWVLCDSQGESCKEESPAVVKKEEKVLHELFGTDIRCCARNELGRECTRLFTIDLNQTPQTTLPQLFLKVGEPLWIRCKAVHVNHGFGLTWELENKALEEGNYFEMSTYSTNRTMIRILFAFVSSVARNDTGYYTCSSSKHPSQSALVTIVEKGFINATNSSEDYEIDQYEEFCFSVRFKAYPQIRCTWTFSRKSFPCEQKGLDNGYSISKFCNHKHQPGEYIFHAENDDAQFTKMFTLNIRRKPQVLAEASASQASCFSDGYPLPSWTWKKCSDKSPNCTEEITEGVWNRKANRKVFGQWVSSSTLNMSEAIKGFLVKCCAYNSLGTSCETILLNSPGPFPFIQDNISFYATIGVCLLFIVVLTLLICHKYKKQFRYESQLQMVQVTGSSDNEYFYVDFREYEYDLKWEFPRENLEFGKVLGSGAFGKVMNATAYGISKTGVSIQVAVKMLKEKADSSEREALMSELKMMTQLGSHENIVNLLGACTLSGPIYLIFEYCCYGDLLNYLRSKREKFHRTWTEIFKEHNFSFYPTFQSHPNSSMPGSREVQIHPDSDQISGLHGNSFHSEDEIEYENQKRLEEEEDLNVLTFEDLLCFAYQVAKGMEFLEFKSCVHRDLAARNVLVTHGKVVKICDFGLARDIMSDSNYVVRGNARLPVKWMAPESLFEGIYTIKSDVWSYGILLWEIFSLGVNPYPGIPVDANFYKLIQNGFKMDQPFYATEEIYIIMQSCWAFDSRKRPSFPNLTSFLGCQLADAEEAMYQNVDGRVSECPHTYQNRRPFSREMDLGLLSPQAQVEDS

Compound | IC50 [3, 12] [µM] | IC50 (hp70S6K1 (RPS6KB1)) [µM] | IC50 (hKDR) [µM] | IC50 (hJAK2) [µM] | IC50 (hGSK3b) [µM] | IC50 (hFLT3) [µM] | IC50 [1, 13] [µM] | EC50 [2, 14] [µM] | EC50 (INS-1E cells; [15]) [µM] | EC50 (NCI-H716 cells; [16]) [µM] | IC50 (HCT116; [20]) [µM] | IC50 [3, 21] [µM] | IC50 (hp70S6K1 (RPS6KB1); kinase assay) [µM] | IC50 (hKDR; kinase assay) [µM] | IC50 (hJAK2; kinase assay) [µM] | IC50 (hGSK3b; kinase assay) [µM] | IC50 (hFLT3; kinase assay) [µM] | EC50 (HeLa cells; [26]) [µM] | IC50 (DLD-1; [27]) [µM] | IC50 (SW480; [28]) [µM] | also measured
Cc1ccccc1C(=O)Nc1ccc(C(=O)N2CCCC(N(C)C)c3ccccc32)cc1 (stereo not drawn) [Mozavaptan] | > 20 | > 20 | > 20 | > 20 | > 20 | > 20 | – | – | – | – | – | – | – | – | – | – | – | – | – | – | IC50 [1, 4]: > 10 µM; EC50 [2, 5]: 4.56 µM; EC50 (INS-1E cells; [6]): > 10 µM; EC50 (NCI-H716 cells; [7]): > 10 µM; EC50 (HeLa cells; [8]): > 10 µM; IC50 (DLD-1; [9]): 12.8 µM; IC50 (SW480; [10]): 3.45 µM; IC50 (HCT116; [11]): 7.56 µM
COC(=O)Nc1nc2ccc(C(=O)c3cccs3)cc2[nH]1 [Nocodazole] | – | – | – | – | – | – | 0.102 | 0.0434 | > 10 | > 10 | 1.08 | 1.12 | > 20 | 6.61 | > 20 | 19.9 | > 20 | – | – | – | EC50 (HeLa cells; [17]): 0.0221 µM; IC50 (DLD-1; [18]): 1.66 µM; IC50 (SW480; [19]): > 20 µM
CCCOc1ccc2nc(NC(=O)OC)[nH]c2c1 [Oxibendazole] | – | – | – | – | – | – | 0.328 | 0.0881 | > 10 | > 10 | 4.75 | > 20 | > 20 | > 20 | > 20 | > 20 | > 20 | – | – | – | EC50 (HeLa cells; [17]): 0.0567 µM; IC50 (DLD-1; [18]): > 20 µM; IC50 (SW480; [19]): > 20 µM
CCCCC1C(=O)N(c2ccccc2)N(c2ccc(O)cc2)C1=O (stereo not drawn) [Oxyphenbutazone] | > 20 | > 20 | > 20 | > 20 | > 20 | > 20 | – | – | – | – | – | – | – | – | – | – | – | – | – | – | IC50 [1, 4]: 3.29 µM; EC50 [2, 5]: 4.92 µM; EC50 (INS-1E cells; [6]): > 10 µM; EC50 (NCI-H716 cells; [7]): > 10 µM; EC50 (HeLa cells; [8]): > 10 µM; IC50 (DLD-1; [9]): 5.87 µM; IC50 (SW480; [10]): 3.01 µM; IC50 (HCT116; [11]): 15.7 µM
COc1cc([C@@H]2c3cc4c(cc3[C@H](O)[C@H]3COC(=O)[C@H]23)OCO4)cc(OC)c1OC [Podofilox] | – | – | – | – | – | – | 0.0081 | 0.0091 | > 10 | > 10 | 0.184 | 0.0667 | > 20 | > 20 | > 20 | > 20 | > 20 | – | – | – | EC50 (HeLa cells; Homo sapiens; S2 Table; HeLa; 20 = no response at highest concentration; read-out: CellCycle G2/M): 0.0077 µM; IC50 (DLD-1; basal, DLD-1, read-out: Basal_Viability ATP DLD-1): 0.182 µM; IC50 (SW480; basal, SW480, read-out: Basal_Viability ATP SW480): 0.207 µM
COc1cc(-c2ccc(=O)[nH]n2)ccc1OC(F)F [Zardaverine] | > 20 | – | – | – | – | – | – | – | – | – | – | – | > 20 | > 20 | > 20 | > 20 | > 20 | > 10 | > 20 | > 20 | IC50 [1, 22]: 1.22 µM; EC50 [2, 23]: > 10 µM; EC50 (INS-1E cells; [24]): > 10 µM; EC50 (NCI-H716 cells; [25]): > 10 µM; IC50 (HCT116; [29]): > 20 µM
CCCCCCCCCCCCCCCCNc1ccc(C(=O)O)cc1 [cetaben sodium, sodium p-(hexadecylamino) benzoate, reference compound] | 7.41 | > 20 | > 20 | > 20 | > 20 | > 20 | – | – | – | – | – | – | – | – | – | – | – | > 10 | 10.6 | 4.39 | inhibition of endothelial tube / cord formation (in words) [1]: uniquely inhibited endothelial cord formation; IC50 [1, 30]: 0.37 µM; IC50 [1, 22]: 0.367 µM; EC50 [2, 31]: > 10 µM; EC50 (INS-1E cells; [32]): > 10 µM; EC50 (NCI-H716 cells; [33]): > 10 µM; IC50 (DLD-1; [34]): 10.6 µM; IC50 (SW480; [35]): 4.4 µM; IC50 (HCT116; [36]): > 20 µM; IC50 [3, 37]: 7.4 µM; inhibition of RPS6KB1 activity (in words) (hp70S6K1 (RPS6KB1)): does not inhibit; inhibition of KDR activity (in words) (hKDR): does not inhibit; inhibition of JAK2 activity (in words) (hJAK2): does not inhibit; inhibition of GSK3β activity (in words) (hGSK3b): does not inhibit; inhibition of FLT3 activity (in words) (hFLT3): does not inhibit
CCC(C)n1ncn(-c2ccc(N3CCN(c4ccc(OCC5COC(Cn6cncn6)(c6ccc(Cl)cc6Cl)O5)cc4)CC3)cc2)c1=O (stereo not drawn) [itraconazole] | 8.69 | > 20 | > 20 | > 20 | > 20 | > 20 | – | – | – | – | – | – | – | – | – | – | – | > 10 | > 20 | 4.33 | IC50 [1, 22]: 1.55 µM; EC50 [2, 23]: > 10 µM; EC50 (INS-1E cells; [24]): > 10 µM; EC50 (NCI-H716 cells; [25]): > 10 µM; IC50 (HCT116; [29]): 8.85 µM
CSc1ccc2c(c1)C(N1CCN(C)CC1)Cc1ccccc1S2 (stereo not drawn) [metitepine, reference compound] | 4.57 | > 20 | > 20 | > 20 | > 20 | > 20 | – | – | – | – | – | – | – | – | – | – | – | > 10 | 4.39 | 1.9 | IC50 [1, 30]: > 10 µM; EC50 [2, 31]: > 20 µM; EC50 (INS-1E cells; [32]): 2.9 µM; EC50 (INS-1E cells; [24]): 2.94 µM; EC50 (NCI-H716 cells; [33]): > 10 µM; IC50 (DLD-1; [34]): 4.4 µM; IC50 (SW480; [35]): 1.9 µM; IC50 (HCT116; [36]): 3.8 µM; IC50 (HCT116; [29]): 3.77 µM; IC50 [3, 37]: 4.6 µM
